{
  "source": "patent US7220822B2",
  "about": "“CD28 mimetics for blocking T cell mediated immune reactions” (The Ohio State University, priority 2000, dated 2007)",
  "key": {"[1]": {"system": "lymph node cells of MBP-primed mice", "assay": "IL-2 ELISPOT of draining lymph node cells from peptide-treated MBP-immunized mice", "assay_type": "in vivo, mouse", "conditions": "mice treated on day 0 of immunization, ELISPOT on restimulation", "experimental": "Ninety-six well unifilter plates (Polyfiltronics, Rockland, Md.) were coated overnight at 4° C. with rat anti-mouse IL-2 (Clone JES6-1A12) (Pharmingen, Calif.) at 4 μg/ml. The plates were then washed 4× with sterile PBS and blocked with 1% BSA in DMEM for 2 h at room temperature. Subsequently, isolated single cell suspensions of CD4+ LNC (5×10^6 cells/ml) and splenocytes (10×10^6 cells/ml) were added with the antigens and CD28 peptides under the conditions as specified for the proliferation assays. After 24 h of culture in the incubator, the cells were removed by washing 3× with PBS and 4× with PBS containing Tween (1:2000) (PBST). Then biotinylated anti mouse-IL-2 (Clone JES6-5H4) (Pharmingen, Calif.) 2 μg/ml was added and incubated at 4° C. overnight. After washing 3× with PBST and 3× with PBS, goat anti-biotin antibody conjugated to alkaline phosphatase (Vector Laboratories Inc, Burlingame, Calif.) diluted to 1:1000 in PBST containing 1% BSA was added and incubated for 2 h at room temperature. The spots were visualized by adding BCIP/NBT phosphatase substrate (Kirkeguard & Perry Laboratories, Gaithesburg, Md.). Image analysis of ELISA spot assays was performed on a Series 1 Immunospot Image Analyzer (Autoimmun Diagnostika (US) Inc.) customized for analyzing ELISA spots to meet objective criteria for size, chromatic density, shape and color.\nMBP reactive T cells that induce EAE are known to display a Th1 phenotype secreting the proinflammatory cytokines IL-2, […] and TNF-β (36. Kay, B. K., M. P. Williamson, and M. Sudol. 2000. Faseb J 14, no. 2:231). ELISPOT assay was used to assess in vitro cytokine production by draining lymph node cells and splenocytes upon restimulation from in vivo MBP-primed T cells. Mice were treated as described in Example 3, on day 0 of immunization."}, "[2]": {"system": "CD4+ LNC from Vα4/Vβ8.2 TCR transgenic mice", "assay_type": "cell-based, mouse", "conditions": "CD4+ LNC and spleen cells, NAc 1-11 10 μg/ml, all concentrations used", "experimental": "The in vitro effect of varying concentration of the CD 28 peptide mimetics on CD4+ lymph node cells and spleen cells from transgenic mice bearing the Vα 4 Vβ8.2 TCR specific for MBP Ac 1-11 was determined.\nCD4+ T cells were purified from pooled peripheral lymph nodes (inguinal, axillary, brachial, cervical, popliteal), and mesenteric lymph nodes and spleen of 6–8 wk old Vα4/Vβ8.2 TCR transgenic mice by positive selection. Single cell suspensions were prepared by lympholyte M gradient, washed, counted and incubated with magnetic bead conjugated anti-mouse CD4 (L3T4) (Miltenyi Biotech Corporation) followed by positive selection using magnetic selection columns. Purity of the CD4^+ cells was greater than 90% as assessed by staining with FITC labeled anti-mouseVβ8.2 mAb (Pharmingen). During the selection process, T cells maintain a naïve phenotype with no evidence for T cell activation as measured by proliferation in culture. Purified CD4+ T-cells (5×10^4 cells/well) were cultured together with wild type splenocytes from B10.PL mice as APC's (10^5 cells/well) in RPMI 1640 containing 10% FCS, 25 mM HEPES, 2 mM L-glutamine, 50 U/ml penicillin, 50 μg/ml streptomycin, and 5×10–5 M 2-ME in round-bottom 96-well plates and MBP (40 μg/ml) or MBP NAc1-11 (10 μg/ml) or media only in the presence or absence of synthetic CD28 peptide analogues at different concentrations in triplicate wells for 72 h, including a final 18-h pulse with [^3H] thymidine. Cultures were harvested onto glass-fiber mats using a Skatron harvester (Skatron, Sterling, Va.) and were counted by liquid scintillation on LKB Betaplate (LKB, Rockville, Md.). The means of the triplicate were determined and the results are expressed as delta cpm (mean counts per minute of cultures with Ag-mean counts per minute of cultures with medium alone)±SD."}, "B10.PL mice with EAE": {"system": "B10.PL mice with EAE", "assay": "EAE in B10.PL mice immunized with GP-MBP in CFA, clinical score", "assay_type": "in vivo, mouse", "conditions": "for mean maximal clinical score: single i.v. 500 μg on day 14 post-immunization (established EAE); for maximum disease incidence / maximum mean cumulative score per day: single i.v. 500 μg on the day of immunization", "experimental": "Female B10.PL mice (6–8 wk old) were obtained from The Jackson laboratory (Bar Harbor, Me.) and housed at the Ohio State University, (Columbus, Ohio).\nMice were injected subcutaneously over four sites on the flank with an emulsion containing 200 μg of guinea-pig-MBP in CFA containing 200 μg heat killed Mycobacterium tuberculosis, Jamaica strain. Pertussis toxin (List Biological, Campbell, Calif.) at 150 ng in 0.2 ml of PBS was given intraperitoneally at the time of immunization and 48 hours later. Animals were observed daily for clinical signs and scored as follows: 1, limp tail or waddling gait with tail tonicity; 2, waddling gait with limp tail (ataxia); 2.5 ataxia with partial paralysis of one limb, 3, partial hind-limb paralysis, 3.5 full paralysis of one limb with partial paralysis of the second limb, 4, full paralysis of two limbs, 4.5 moribund and 5, death. All mice immunized with MBP (200 μg) in CFA developed clinical disease varying between ataxia and complete hind limb paralysis by day 14 post-immunization. They were then distributed randomly into six groups with mean clinical score of each group approximately the same.\nGroups of mice were left untreated or injected intravenously with 500 μg of EL CD28 or RI CD28 peptide mimetics, or LCD28, RLCD28 and DCD28 peptides. The mean clinical score of untreated mice continued to increase reaching a maximum of 3.4 on day 20. Similarly the disease continued to progress in mice treated with LCD28, RLCD28 and DCD28, reaching mean maximal clinical score of 3.8 (day 18), 3.4 (day 16 ) and 3.7 (day 16) respectively.\nThe biological activity of synthetic CD28 peptide analogues during antigen priming in vivo in EAE was then shown. B10.PL mice immunized with GP-MBP (200 μg) in CFA were either left untreated or injected intravenously 500 μg of EL CD28 or RI CD28 peptide mimetics or LCD28, RLCD28 and DCD28 peptides on the day of immunization. The vehicle treated mice and mice treated with: LCD28, RL CD28 and D CD28 peptide had maximum disease incidence of 100%, 100%, 91.5% and 91.5% and maximum mean cumulative score per day of 1.9, 1.8, 1.7 and 2 respectively. […] The effect of RI CD28 peptide injection lasted for the duration of observation (37 days) in one experiment."}, "CD80-Ig": {"biological_target": "T1, CD80-Ig (Homo sapiens, UniProt P33681)", "T1 construct": "extracellular domain of CD80 fused with the constant region of mouse IgG1 heavy chain", "T1 sequence (P33681 35-242 limits assumed, other chains not shown)": "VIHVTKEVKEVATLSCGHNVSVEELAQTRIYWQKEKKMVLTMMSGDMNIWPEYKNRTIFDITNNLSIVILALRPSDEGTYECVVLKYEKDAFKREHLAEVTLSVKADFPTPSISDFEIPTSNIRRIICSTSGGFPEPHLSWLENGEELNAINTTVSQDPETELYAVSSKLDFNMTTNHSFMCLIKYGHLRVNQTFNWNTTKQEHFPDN", "assay": "Direct kinetic analysis of CD28 peptide binding to immobilized CD80-Ig by surface plasmon resonance (BIACORE)", "experimental": "Binding experiments were performed by surface plasmon resonance (SPR) on an instrument sold under the trademark BIACORE™ from Pharmacia Biosensor (Uppasala, Sweden).\nCD80-Ig (extracellular domain of CD80 fused with the constant region of mouse IgG1 heavy chain) at 35 μg/ml in 10 mM sodium acetate buffer, pH 4.2, was coupled to a research grade CM 5 sensor chip using a standard amine coupling procedure with the following modifications (38). To reduce the immobilization level of the ligand, the surface was activated for 3 (instead of 7) minutes with N-hydroxysuccinamide and […]. […] Following coupling, noncovalently bound ligand was removed by washing twice with 5 mM NaOH.\nThe analytes were also injected at the same concentration and injection times over an empty flow cell with nothing immobilized.\nData analysis was performed with BIAEVALUATION™ software version 2.1(Pharmacia Biosensor AB). […] Prior to kinetic analysis, data were adjusted to zero baseline level by subtracting the background responses obtained by injection of the analytes through a control flow cell with no ligand immobilized. First, the dissociation rate constant, kd, (units: s^−1) was determined, by fitting experimental data from the buffer flow part of the sensogram to the equation R(t)=R1*e^−kd*(t^0^−t^1^) (1) where t0 is the injection time, R1 is the response level at the start of dissociation time t1 and kd is the dissociation rate constant.\nThe kd value obtained was used as a constant during the analysis of the injection phase data. Binding data above the noise level was selected by converting the sensogram to a plot of the logarithm of the binding rate vs time (dR/dt vs. time). The ka was determined by nonlinear curve fitting of the following equation R(t)=Req*{1−e^−(k^a^*C+k^d^)*(t) (2) where R(t) is the response at time t, Req is the steady state response level, ka is the association rate constant (units: M^−1s^−1), kd is the dissociation rate constant and C is the concentration of the injected peptide analyte. An offset was added to account for the refractive index differences between the analyte and the running buffer.\nAfter analyzing sensograms obtained from injections of increasing concentrations of peptide analytes or CD28-Ig, the experimental data was analyzed using the BIAsimulation software 2.1. A plot of the logarithm of (dR/dt) against time was calculated from the sensograms, and then the slopes at different concentrations were plotted against the concentrations of the peptide analyte. Different angles obtained of the linear lines represent the variation of affinities, which gives the association rate constant (ka) from the equation ln dR/dt=ln(kaCR max)−KaC+kd)t (4) where dR/dt is the rate of change of the SPR signal, C is the concentration of the analyte, Rmax is the maximum analyte binding capacity in RU and R is the SPR signal in RU at time t. The dissociation rate constant is obtained from the equation Kd=kd/ka (5)"}},
  "note": "Square brackets hold non-standard residues; d marks the D form. Peptide text beside a SMILES is read from it.",
  "data": [
    {"molecule": "CH3COL[ITGNSRENDLYPPPYMFEIK]LCONH2 (Ac-ITGNSRENDLYPPPYMFEIK-NH2) [RL CD28, Reverse-L-peptide (Control), reference compound]", "values": [
      {"measurement": "frequency of IL-2 secreting lymph node cells", "setting": "[1]", "result": "3386+/−23.3"},
      {"measurement": "proliferative response / inhibition of T cell proliferation (in words)", "setting": "[2]", "result": "did not show inhibition"},
      {"measurement": "mean maximal clinical score", "setting": "B10.PL mice with EAE", "result": 3.4},
      {"measurement": "maximum disease incidence", "setting": "B10.PL mice with EAE", "result": 91.5, "unit": "%"},
      {"measurement": "maximum mean cumulative score per day", "setting": "B10.PL mice with EAE", "result": 1.7}
    ]},
    {"molecule": "CC[C@H](C)[C@H](NC(=O)[C@@H](NC(=O)CNC(=O)[C@H](CC(N)=O)NC(=O)[C@H](CO)NC(=O)[C@H](CCCNC(=N)N)NC(=O)[C@H](CCC(=O)O)NC(=O)[C@H](CC(N)=O)NC(=O)[C@H](CC(=O)O)NC(=O)[C@H](CC(C)C)NC(=O)[C@H](Cc1ccc(O)cc1)NC(=O)[C@@H]1CCCN1C(=O)[C@@H]1CCCN1C(=O)[C@@H]1CCCN1C(=O)[C@H](Cc1ccc(O)cc1)NC(=O)[C@H](CCSC)NC(=O)[C@H](Cc1ccccc1)NC(=O)[C@H](CCC(=O)O)NC(=O)[C@@H](NC(=O)[C@@H](N)CCCCN)[C@@H](C)CC)[C@@H](C)O)C(=O)O", "note": "[L CD28, NH2KIEFMYPPPYLDNERSNGTICOOH] (H-KIEFMYPPPYLDNERSNGTI-OH)", "values": [
      {"measurement": "proliferative response / inhibition of T cell proliferation (in words)", "setting": "[2]", "result": "significantly less"},
      {"measurement": "mean maximal clinical score", "setting": "B10.PL mice with EAE", "result": 3.8},
      {"measurement": "maximum disease incidence", "setting": "B10.PL mice with EAE", "result": 100, "unit": "%"},
      {"measurement": "maximum mean cumulative score per day", "setting": "B10.PL mice with EAE", "result": 1.8},
      {"measurement": "maximum response units obtained for binding to CD80-Ig", "setting": "CD80-Ig; SPR direct binding", "result": 478, "unit": "RU"}
    ]},
    {"molecule": "MYPPPY (listed as Homo sapiens) [hexapeptide, reference compound]", "values": [
      {"measurement": "proliferative response / inhibition of T cell proliferation (in words)", "setting": "[2]", "result": "did not show inhibition"},
      {"measurement": "binding to CD80-Ig (in words)", "setting": "CD80-Ig; data not shown", "result": "did not bind"}
    ]},
    {"molecule": "CH3COD[KIEFMYPPPYLDNERSNGTI]DCONH2 (Ac-[dK][dI][dE][dF][dM][dY][dP][dP][dP][dY][dL][dD][dN][dE][dR][dS][dN]G[dT][dI]-NH2) [D CD28, D-peptide (Control), reference compound]", "values": [
      {"measurement": "frequency of IL-2 secreting lymph node cells", "setting": "[1]", "result": "2675+/−14.2"},
      {"measurement": "proliferative response / inhibition of T cell proliferation (in words)", "setting": "[2]", "result": "did not show inhibition"},
      {"measurement": "mean maximal clinical score", "setting": "B10.PL mice with EAE", "result": 3.7},
      {"measurement": "maximum disease incidence", "setting": "B10.PL mice with EAE", "result": 91.5, "unit": "%"},
      {"measurement": "maximum mean cumulative score per day", "setting": "B10.PL mice with EAE", "result": 2}
    ]}
  ]
}
